Test results reported in patent US8357659B2, “Method of treating pain or itching with APETx2 peptide toxin” (priority 2008, dated 2013).

Legend:
[1] = tested on: thermal hyperalgesia induced by CFA; experiment: Inflammation-induced (CFA) thermal hyperalgesia in rats, hotplate at 50° C.; type: in vivo, rat
Protocol: Sensitivity to heat of adult male Wistar rats (Charles River, France) was tested by measuring the time taken by the animal to retract one of its hind paws when placed on a hotplate at 50° C. (Bioseb, France), before and after induction of inflammation by subcutaneous injection of a solution of Freund's complete adjuvant (CFA, Sigma-Aldrich, France). The rats were acclimatised to the experimentation room for at least 30 minutes and each measurement was performed in duplicate. An initial measurement was performed before induction of inflammation. The rats were subsequently anaesthetised (isofluorane) while 150 μl of CFA diluted 1:1 with a saline solution (0.9% NaCl) containing either toxins (PcTx1 or APETx2, 120 nM and 20 μM, respectively) or the vehicle was injected (26G needle mounted on a 1 ml syringe) subcutaneously into the plantar side of one of the hind paws. The time taken by the animal to lift the injected hind paw was subsequently measured at 50° C., 2, 4 and 24 hours after the injection of CFA.
ASIC3 channel-specific iRNA (no. 1121; CTACACGCTATGCCAAGGA, SEQ ID NO: 1) and its control (no. 1121S; GCTCACACTACGCAGAGAT, SEQ ID NO: 2) were designed in the laboratory and were synthesised by MWG Biotech Company (Germany). The ASIC3-specific iRNA was validated by quantification of the messenger RNA levels by quantitative RT-PCR for each ASIC channel and for the TRPV1 channel, following intrathecal injections into the lumbar region of the spinal cord of rats, at a rate of one injection per day for 3 consecutive days, before the animal was sacrificed. The same procedure was followed before induction of inflammation by CFA. Each injection was 10 μl in volume, containing 2 μg of iRNA mixed with the transfection agent i-Fect (Neuromics) at a ratio of 1 to 4.

ASIC1a = target: T1, ASIC1a (Rattus norvegicus, UniProt P55926); conditions: cited from earlier work
T1 sequence (P55926 1-526): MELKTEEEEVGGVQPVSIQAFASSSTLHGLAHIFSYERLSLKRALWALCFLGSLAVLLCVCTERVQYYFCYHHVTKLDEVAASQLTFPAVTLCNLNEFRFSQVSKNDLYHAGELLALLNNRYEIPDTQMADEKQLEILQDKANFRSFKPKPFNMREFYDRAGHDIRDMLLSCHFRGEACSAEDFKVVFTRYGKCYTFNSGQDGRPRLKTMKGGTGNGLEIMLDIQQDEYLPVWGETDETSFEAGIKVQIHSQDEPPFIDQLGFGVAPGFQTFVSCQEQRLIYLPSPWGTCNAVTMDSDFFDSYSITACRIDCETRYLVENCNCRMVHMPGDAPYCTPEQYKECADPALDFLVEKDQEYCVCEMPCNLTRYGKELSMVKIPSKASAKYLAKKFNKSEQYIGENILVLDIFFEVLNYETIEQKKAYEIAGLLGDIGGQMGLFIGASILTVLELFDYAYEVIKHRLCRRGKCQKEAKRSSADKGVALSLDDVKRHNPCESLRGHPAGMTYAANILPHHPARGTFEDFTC

heteromer ASIC2b+3 = target: T2, heteromer ASIC2b+3 (Rattus norvegicus, UniProt O35240+Q62962); conditions: cited from earlier work
T2 sequence (Q62962 1-563 isoform Q62962-2): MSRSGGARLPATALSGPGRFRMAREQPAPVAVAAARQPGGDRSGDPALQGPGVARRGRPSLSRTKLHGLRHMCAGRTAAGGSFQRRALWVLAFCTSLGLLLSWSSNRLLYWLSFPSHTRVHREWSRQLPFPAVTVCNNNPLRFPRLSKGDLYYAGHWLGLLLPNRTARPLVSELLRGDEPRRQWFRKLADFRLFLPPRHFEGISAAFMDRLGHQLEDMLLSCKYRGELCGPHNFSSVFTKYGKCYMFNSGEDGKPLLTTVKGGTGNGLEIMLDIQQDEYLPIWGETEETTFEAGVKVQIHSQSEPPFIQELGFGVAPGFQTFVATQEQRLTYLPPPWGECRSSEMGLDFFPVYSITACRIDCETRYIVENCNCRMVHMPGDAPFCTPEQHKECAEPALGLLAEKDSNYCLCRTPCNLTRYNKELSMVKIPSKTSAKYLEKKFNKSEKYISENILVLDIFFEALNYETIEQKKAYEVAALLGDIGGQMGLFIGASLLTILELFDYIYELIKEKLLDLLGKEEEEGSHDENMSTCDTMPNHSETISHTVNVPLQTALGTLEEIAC
T2 sequence (O35240 1-533): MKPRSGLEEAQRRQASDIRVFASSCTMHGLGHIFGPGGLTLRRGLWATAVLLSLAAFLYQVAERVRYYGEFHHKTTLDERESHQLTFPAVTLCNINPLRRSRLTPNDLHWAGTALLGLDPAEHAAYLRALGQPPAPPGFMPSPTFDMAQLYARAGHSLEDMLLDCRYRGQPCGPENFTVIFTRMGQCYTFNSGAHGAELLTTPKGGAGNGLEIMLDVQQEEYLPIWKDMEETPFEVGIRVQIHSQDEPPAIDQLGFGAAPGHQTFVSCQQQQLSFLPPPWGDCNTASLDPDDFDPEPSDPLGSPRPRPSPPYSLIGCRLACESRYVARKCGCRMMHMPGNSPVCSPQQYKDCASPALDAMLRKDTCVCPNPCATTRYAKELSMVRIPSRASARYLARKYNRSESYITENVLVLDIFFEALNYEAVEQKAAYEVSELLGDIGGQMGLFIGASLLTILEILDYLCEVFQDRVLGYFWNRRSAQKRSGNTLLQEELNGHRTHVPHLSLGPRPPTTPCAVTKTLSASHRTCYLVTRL

peptide of 42 amino acids (SEQ ID NO: 3), three disulphide bonds, from sea anemone Anthopleura elegantissima; blocks ASIC3 [APETx2]
development of thermal hyperalgesia ([1]; toxin concomitantly injected with CFA (APETx2 20 μM, PcTx1 120 nM), four hours after CFA): does not develop | thermal hyperalgesia behaviour versus vehicle control animals ([1]; twenty hours after the injection of CFA, data not represented): do not display any behaviour different | effect on ASIC1a isoform (ASIC1a): does not have any effect | effect on the current of the heteromer ASIC2b+3 (heteromer ASIC2b+3): inhibits
